Patent publication US20220096664A1, “STABILIZED FORMULATIONS CONTAINING IODINATED CONTRAST AGENTS AND CYCLODEXTRINS” (Verrow Pharmaceuticals, Inc., priority 2012, published 2022)
Like-named read-outs stand apart in the source and are kept apart here.

Legend:
[1] = Photostability: iodide formed after visible light irradiation; format: physicochemical; details: 10 mM TRIS; for Iodide formed: 50 mM agent, pH 7.4, VIS 72 h
Experimental: (§1) Aqueous solutions comprising iodinated contrast agents were prepared and evaluated in a photolysis chamber as described in the ICH guidance document, Q1B Photostability Testing of New Drug Substances and Products, available from the US Food and Drug Administration, incorporated herein by reference. The solutions were placed in 1 cm×1 cm (3 mL) quartz cuvettes having 2 clear sides and 2 sides etched. Lids were placed on the cuvettes and sealed with a wrap of Parafilm® around the joint. The cuvettes were placed in a photolysis chamber, upright on a flat surface beneath and centered between two horizontal 24 inch fluorescent lamps, (GE, black light F20T12, 20 watt for ultraviolet, or Philips F20T12/CW, 20 watt for visible) placed 6 cm apart. The cuvettes were positioned such that their two clear sides were facing the two lamps.
(§2) Cuvettes were spaced ˜2 cm from each other, and no closer than 15 cm from the ends of the lamps. This positioning allowed reproducible light exposure to all cuvettes.
(§3) The lamps were switched on and the solutions irradiated for 18 to 24 hours for the ultraviolet (UV) lamps or 72 to 90 hours for the visible (VIS) light lamps. At the end of the selected irradiation time, the cuvettes were removed from the photolysis chamber and mixed by inversion 2-times. The caps were then removed and 40 microliter aliquots taken and diluted with 1 mL of an aqueous solution containing ˜0.9 mg/mL sodium thiosulfate. The thiosulfate solution converted any I2, IO3^−, and I3^− present in the solution tor such that total iodine species could be determined in one assay.
(§4) The diluted solutions were assayed by high pressure liquid chromatography (HPLC) using a 4.6×250 mm, C-18, 5 micron particle size, reversed phase column with detection at 280 nm for the contrast agent and 230 nm for the thiosulfate and the iodide ion (r). A mobile phase of 30:70 methanol:aqueous buffer (50 mM KH2PO4+7 mL/L 40% tetrabutyl ammonium hydroxide) at 0.75 mL/min was used for elution. Injection volume was 20 microliters. External standards were prepared containing each contrast agent, potassium iodide, and sodium thiosulfate solution and analyzed along with the irradiated samples. The results were reported as weight percentage iodide formed (mg iodide/mg contrast agent times 100).
(§5) The absorbance readings at 400 nm due to light exposure were plotted against time of exposure and the resulting correlation used to determine the UV and VIS light exposure. A change in absorbance reading of 0.45 was assumed equivalent to 200 watt hours/square meter for the UV light and a change of 0.51 was assumed equivalent to 1.2 million lux hours for the VIS light. The UV lamps provided 6.62 watts/square meter and the VIS lamps provided 7180 lux.
Aqueous solutions were prepared containing 473 mM iohexol (180 mg 1/mL), 10 mM tromethamine HCl buffer (TRIS), with and without various SCDs. The pH of the solutions was adjusted to 7.4 with 0.1N hydrochloric acid. Aliquots of the solutions were irradiated with ultraviolet (UV) light for 18 hours (119 watt hours/m^2) and other aliquots irradiated with visible (VIS) light for 90 hours (0.65 million lux hours). The solutions were then processed, analyzed and reported as in Example 2, with the exception that the iohexol peak was measured at 300 nm for both samples and standards. Results of the study are presented in the table below along with the SCD used. The SCDs included derivatives prepared from alpha, beta, and gamma CD to evaluate the effect of CD cavity size. Various substituents, including one derivative containing more than one type of substituent, and degrees of substitution (DS) were also evaluated.
Aqueous solutions were prepared containing 50 mM iodinated contrast agent, 10 mM tromethamine HCl buffer (TRIS), with and without sulfobutylether beta-cyclodextrin with an average degree of substitution-7 (SBE7-β-CD), or 2-hydroxypropyl beta-cyclodextrin with an average degree of substitution of ˜6.3 (HP6.3-β-CD) or ˜4.3 (HP4.3-β-CD). […]

[2] = format: physicochemical
Experimental: as §3, §4
(§6) Aqueous solutions were prepared containing 50 mM iodinated contrast agent, 10 mM tromethamine HCl buffer (TRIS), with and without sulfobutylether beta-cyclodextrin with an average degree of substitution-7 (SBE7-β-CD), or 2-hydroxypropyl beta-cyclodextrin with an average degree of substitution of ˜6.3 (HP6.3-β-CD) or ˜4.3 (HP4.3-β-CD). The iohexol solution was prepared by dissolving solid iohexol powder while the other solutions were prepared by diluting commercial formulated products and adding sufficient TRIS buffer to reach 10 mM. The pH of the solutions was adjusted to 7.4 with 0.1N hydrochloric acid.
Aliquots of the solutions were irradiated with visible light for 72 hours (0.52 million lux hours). Other aliquots were autoclaved for 20 minutes at 121° C., cooled to room temperature and then irradiated with ultraviolet light for 18 hours (119 watt hours/m2). The solutions were then processed, analyzed and reported as in Example 2, except that the chromatographic peaks of the contrast agents were evaluated at 300 nm for both samples and standards. […]
Aqueous formulations were prepared containing iodinated contrast agents at concentrations used commercially in medical procedures. Sulfobutylether-cyclodextrin, sodium salt, average degree of substitution ˜7 (SBE7CD) was added at varying agent:CD mole ratios. The formulations were placed in glass vials, sealed with rubber stoppers and aluminum crimps, and autoclaved at 121° C. for 20 minutes. Aliquots of the autoclaved solutions were exposed to UV light for 24 hours (159 watt hours/m^2 or VIS light for 72 hours (0.52 million lux hours) as in Example 2. The solutions were then processed, analyzed and reported as in Example 2, with the following two exceptions; 1) the chromatographic peaks of the contrast agents were evaluated at 300 nm for both samples and standards, and 2) only 20 microliter sample aliquots were taken and diluted for HPLC analysis due to the higher concentrations used in this study. Results of the study are presented in the table below along with the solution compositions.

[3] = format: physicochemical; details: for Iodide formed: 50 mM agent, 10 mM TRIS
Experimental: as §3, §4, §6
Aliquots of the solutions were irradiated with visible light for 72 hours (0.52 million lux hours). Other aliquots were autoclaved for 20 minutes at 121° C., cooled to room temperature and then irradiated with ultraviolet light for 18 hours (119 watt hours/m2). The solutions were then processed, analyzed and reported as in Example 2, except that the chromatographic peaks of the contrast agents were evaluated at 300 nm for both samples and standards.
Aqueous solutions were prepared containing 50 mM iohexol, 0, 2.5, 5, 7.5, or 10 mM tromethamine HCl (TRIS) buffer, with and without 2.5 mM sulfobutylether beta-cyclodextrin with an average degree of substitution-7 (SBE7-β-CD). The pH of the solutions was adjusted to 7.4 with 0.1N hydrochloric acid and the solutions were transferred to glass vials. The vials were stoppered, crimp-capped and autoclaved for 20 minutes at 121° C. The pH of the autoclaved solutions was measured after the solutions were at room temperature.
Aliquots of the autoclaved solutions were irradiated with visible light for 72 hours (0.52 million lux hours) and other aliquots irradiated with ultraviolet light for 18 hours (119 watt hours/m2). The solutions were then processed, analyzed and reported as in Example 2, except that the chromatographic peak of the iohexol was evaluated at 300 nm for both samples and standards.
Aqueous formulations were prepared containing iodinated contrast agents at concentrations used commercially in medical procedures. Sulfobutylether-cyclodextrin, sodium salt, average degree of substitution ˜7 (SBE7CD) was added at varying agent:CD mole ratios. The formulations were placed in glass vials, sealed with rubber stoppers and aluminum crimps, and autoclaved at 121° C. for 20 minutes. […]

[4] = contrast media solutions; cited from earlier work
[5] = Photostability: iodide formed after UV light irradiation; format: physicochemical; details: 473 mM iohexol, 10 mM TRIS, pH 7.4, UV 18 h
Experimental: as §1, §2, §3, §4, §5
Aqueous solutions were prepared containing 50 mM contrast agent by diluting commercially available solutions with water. Tromethamine HCl buffer (TRIS), was added to solutions as necessary to increase the TRIS content to that of the commercial product before dilution.
SCD was added to the solutions at various mole ratios and the pH of the solutions adjusted to 7.4 with 0.1N hydrochloric acid or 0.1N sodium hydroxide. The solutions were irradiated with UV light for 18 hours (119 watt hours/m^2) then processed, analyzed and reported as in Example 2. The SCDs evaluated were sulfobutyl ether beta-cyclodextrin with an average degree of substitution of 7 (SBE-704CD), and two 2-hydroxypropyl beta-cyclodextrin derivatives having 6.3 (HP-6.3n/CD) and 4.3 (HP-4.3-βCD) average degrees of substitution.
Aqueous solutions were prepared containing 50 mM contrast agent by diluting commercially available solutions with distilled water. Tromethamine HCl buffer (TRIS), was added to some solutions to increase the buffer content.
The solutions were divided and SBE-7-CD added to one aliquot at a contrast agent:SCD mole ratio of 1:1. The pH of the solutions was adjusted to 5, 6, 7, 7.4 or 8 with 0.1N hydrochloric acid or sodium hydroxide. […]

[6] = pH 7.4, autoclaved then UV 18 h, agent:SBE7-β-CD 1:0.1
[7] = pH 7.4, autoclaved then UV 18 h, no SCD (1:0)

C[C@H](O)C(=O)Nc1c(I)c(C(=O)NC(CO)CO)c(I)c(C(=O)NC(CO)CO)c1I [Iopamidol, iopamidol]
Iodide formed ([1]; agent:SBE7-β-CD 1:0.1): 0.355 wt %
Iodide formed ([1]; no SCD (1:0)): 0.356 wt %
Iodide Formed, Autoclaved ([2]; Iopamidol 200 mg I/mL, pH 7, agent:SBE7CD 1:0.05): 0.00338 wt %
Iodide Formed, Autoclaved ([2]; Iopamidol 200 mg I/mL, pH 7, no SCD (1:0)): 0.00347 wt %
stabilization against degradation from autoclaving+visible light irradiation [3]: stabilized all formulations except iopamidol
Iodide formed [3, 6]: 0.470 wt %
Iodide formed [3, 7]: 0.540 wt %
Iodide formed ([3]; pH 7.4, autoclaved then visible light, agent:SBE7-β-CD 1:0.1): 0.344 wt %
Iodide formed ([3]; pH 7.4, autoclaved then visible light, no SCD (1:0)): 0.348 wt %
Iodide Formed, UV ([3]; Iopamidol 200 mg I/mL, pH 7, agent:SBE7CD 1:0.05, autoclaved then UV 24 h): 0.145 wt %
Iodide Formed, VIS ([3]; Iopamidol 200 mg I/mL, pH 7, agent:SBE7CD 1:0.05, autoclaved then VIS 72 h): 0.0574 wt %
Iodide Formed, UV ([3]; Iopamidol 200 mg I/mL, pH 7, no SCD (1:0), autoclaved then UV 24 h): 0.150 wt %
Iodide Formed, VIS ([3]; Iopamidol 200 mg I/mL, pH 7, no SCD (1:0), autoclaved then VIS 72 h): 0.0570 wt %

CNC(=O)c1c(I)c(C(=O)NCC(=O)Nc2c(I)c(C(=O)O)c(I)c(C(=O)NCCO)c2I)c(I)c(N(C)C(C)=O)c1I [Ioxaglate, ioxaglate]
Iodide formed ([1]; agent:SBE7-β-CD 1:0.1): 0.211 wt %
Iodide formed ([1]; no SCD (1:0)): 0.231 wt %
Iodide Formed, Autoclaved ([2]; Ioxaglate 320 mg I/mL (393 mg ioxaglate meglumine and 196 mg ioxaglate sodium), pH 7.0, no SCD (1:0)): 0.00457 wt %
Iodide Formed, Autoclaved ([2]; Ioxaglate 320 mg I/mL, pH 7.0, agent:SBE7CD 1:0.05): 0.00329 wt %
Iodide formed [3, 6]: 0.332 wt %
Iodide formed [3, 7]: 0.392 wt %
Iodide Formed, UV ([3]; Ioxaglate 320 mg I/mL, pH 7.0, agent:SBE7CD 1:0.05, autoclaved then UV 24 h): 0.0845 wt %
Iodide Formed, VIS ([3]; Ioxaglate 320 mg I/mL, pH 7.0, agent:SBE7CD 1:0.05, autoclaved then VIS 72 h): 0.0175 wt %
Iodide Formed, UV ([3]; Ioxaglate 320 mg I/mL, pH 7.0, no SCD (1:0), autoclaved then UV 24 h): 0.114 wt %
Iodide Formed, VIS ([3]; Ioxaglate 320 mg I/mL, pH 7.0, no SCD (1:0), autoclaved then VIS 72 h): 0.0197 wt %

CNC(=O)c1c(I)c(NC(C)=O)c(I)c(C(=O)O)c1I [iothalamate sodium]
degradation in solution after exposure to ultraviolet light [4]: formation of iodine and iodide ions

sulfobutylether 3.5-ethylether 3.5-beta-cyclodextrin [SBE-EE-βCD]
I- formed, VIS ([1]; 473 mM iohexol, pH 7.4, VIS 90 h, iohexol:SCD 1:0.05): 0.0584 wt %
% Change in iodide degradants (Vis) ([1]; 473 mM iohexol, pH 7.4, VIS 90 h, iohexol:SCD 1:0.05 vs control): −5.3% (Vis)
I- formed, UV ([5]; iohexol:SCD 1:0.05): 0.0825 wt %
% Change in iodide degradants (UV) ([5]; iohexol:SCD 1:0.05 vs control): −22.9% (UV)
